US6207656A, “Vitamin D analogues and their neuronal effects” (Cephalon, Inc., priority 1998, dated 2001)
“Also recorded” adds a separate entry of the source. Each block holds one molecule with its values, some of them ahead of it.

How the values were obtained:
vitamin D receptor = biological target: T1, vitamin D receptor (Gallus gallus, UniProt O42392); test: Vitamin D receptor binding (displacement of 3H-1α,25(OH)2D3)
T1 sequence (O42392 1-451): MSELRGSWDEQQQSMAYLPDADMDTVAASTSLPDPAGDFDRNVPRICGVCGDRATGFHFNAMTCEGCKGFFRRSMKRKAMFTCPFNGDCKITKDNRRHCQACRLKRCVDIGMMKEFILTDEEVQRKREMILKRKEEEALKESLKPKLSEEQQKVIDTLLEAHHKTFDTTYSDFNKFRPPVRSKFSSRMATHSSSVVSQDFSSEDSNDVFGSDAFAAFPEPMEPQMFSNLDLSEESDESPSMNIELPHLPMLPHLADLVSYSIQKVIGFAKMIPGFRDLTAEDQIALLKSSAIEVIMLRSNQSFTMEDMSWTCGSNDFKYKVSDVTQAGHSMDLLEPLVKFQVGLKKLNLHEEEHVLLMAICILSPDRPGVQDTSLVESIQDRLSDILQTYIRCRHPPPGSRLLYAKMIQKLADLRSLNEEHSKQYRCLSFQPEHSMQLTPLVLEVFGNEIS
Excerpt: Bound and free ^3 H-1α,25(OH2)D3 were then separated on dextran-coated charcoal, samples were centrifuged and the supernatants containing the receptor-bound ^3 H-1α,25(OH2)D3 were counted in a liquid scintillation counter.

[1] = Calcemic activity in rats, serum calcium after 7 days oral gavage; assay type: in vivo, LEW/MOL female rats; settings: for Calcium in Serum: ± S.D.; for Calcemic Activity (%): potency relative to 1α,25(OH)2 D3, rats, p.o. 7 days; for calcemic classification: summary statement
Protocol: For determining calcemic activity, LEW/MOL female rats (130-170 g) were administered test compounds daily for 7 days by oral gavage. Control rats received the vehicle. Each group consisted of 3 rats. Blood was collected by cardiac puncture on day 7.

hippocampal ChAT = test: Fimbria fornix lesion model, hippocampal ChAT activity; assay type: in vivo, rat; settings: oral gavage daily 14 days, FIGS. 4 to 8; * p<0.05 vs vehicle-treated lesioned controls
Excerpt: The fimbria fornix lesion model is an established protocol for assessing cholinergic neuronal survival in the basal forebrain. […] Contained within the region of the brain 10 are cholinergic neurons 16. A healthy cholinergic neuron has a cell body 18, and one or more axons 20. Each of the axons 20 have a free end, referred to as a terminal 22, that extends into the hippocampus 14. In the fimbria fornix lesion model, damaged cholinergic neurons 24 are produced by transecting a portion of the axons 20 at a location 26 between the hippocampus 14 and the cell body 18. As a result of this transection, damaged cell bodies 28 are produced that no longer have cholinergic axons 30 and terminals 32. These damaged cell bodies 28, also lose cholinergic cell body markers 34 and stop producing ChAT. The fimbria fornix lesion model is used to study methods of restoring ChAT production, such as through stimulating increased production of ChAT in the healthy cholinergic neurons, and/or through restoring normal functioning of the damaged cholinergic neurons 24.
For the studies described herein, animals were anesthetized with pentobarbital and placed in a stereotaxic apparatus. The skull was opened on the left side, a knife was positioned 1.2 mm posterior to bregma and 0.6 mm lateral to the midline. The knife was lowered to 4.5 mm below the dura into the brain and moved laterally 2 mm partially transecting the fimbria fornix. After 14 days of administration of the test compounds by oral gavage, the hippocampus was removed and homogenized.
(§1) The hippocampal ChAT activity is expressed as a percentage of the hippocampal ChAT activity of the […] control side (i.e., lesion control) in FIGS. 4 to 8.

[2] = tested on: acrylamide-induced peripheral neuropathy in rats; test: Acrylamide-induced peripheral neuropathy, landing foot spread; assay type: in vivo, rat
Protocol: Peripheral neuropathy was induced in rats by the administration of the neurotoxin acrylamide, 50 mg/kg, IP, 3×/week. The acrylamide treatment occurred during the first three weeks of the experiment. After acrylamide was discontinued, the animals were allowed to recover for an additional 3-5 weeks. The ability of Compound (A) or Compound (B) to either slow the onset of peripheral neuropathy, reduce the severity of the peripheral neuropathy or enhance the recovery from peripheral neuropathy was determined. The compounds were administered either orally (Compound (A)) or via subcutaneous Alzet mini-pumps (I month model)(Compounds (A) and (B)) beginning 3 days prior to the first dose of acrylamide. Compound (A) was administered orally at doses of 0.3, 1.0 and 3.0 μg/kg/day and by mini-pump at doses of 10, 55, 100, 330 and 550 ng/day. Compound (B) was administered by mini-pump at doses of 10, 33, 100, 330 and 1000 ng/day. These dose ranges were selected to limit toxicity and to bracket the dose range used in fimbria fornix lesion experiments. The mini-pumps were replaced at the end of the fourth week so that the test compound was on board for the duration of the experiment. In FIG. 11B, the data from FIG. 11A was averaged.

[3] = Serum calcium in fimbria fornix lesioned rats; assay type: in vivo, Sprague Dawley rats; settings: oral gavage daily 14 days; data not shown
Protocol: For the fimbria fornix lesion studies, serum calcium was determined by the following method. Sprague Dawley rats (200-300 g) were dosed as described below. Blood was collected from the animals after sacrifice and allowed to clot at room temperature for 3-10 minutes; cells were pelleted in a clinical centrifuge.
as §1

NGF mRNA = test: Induction of NGF mRNA expression in rats; assay type: in vivo, Sprague Dawley rats
Protocol: Five hours after the last dose, the animals were sacrificed by decapitation. Each brain was quickly removed and chilled in ice-cold saline. The brain was cut into 2 mm thick coronal sections. Portions of the hippocampus, encompassing the CA1 region, and the medial septum were removed by punching 2 mm^3 sections using a calibrated tissue punch. Punched sections were immediately frozen on dry ice and then stored at -70° C. RNA was prepared from dissected tissue pieces.
Punches of tissue were homogenized in […] RNAzolB™ (Bioteex Laboratories, Houston, Tex.) using a homogenizer (Tekmar, Germany) until fully homogenized and then 250 μl RNAzilB™ was added. Typically, punches from the corresponding regions of brains of 2 to 3 animals were combined together. RNA was prepared as recommended by the manufacturer (Biotecx Laboratories). Following isopropanol precipitation, RNA was reprecipitated with ethanol and finally resuspended in 25-50 μL of water. Concentration of RNA was measured spectrophotometrically and the quality of RNA was visualized on a nondenaturing agarose gel. Equal amounts of RNA, usually 1-2 μg, were reverse transcribed using Superscript II™ (Gibco BRL), as recommended by the manufacturer. The assay was terminated by incubation at 95° C. 1 min. at 55-60° C. (depending on the primer set) and 2 min. at 72° C. […] After the assay, samples were electrophoresed on 5% nondenaturing acrylamide gels. Gels were dried and the resulting labeled bands were visualized on a phosphorimager (Storm 840, Molecular Dynamics, Sunnyvale, Calif.). The following primers were used: […]
Nerve Growth Factor (NGF). Primers were designed against the rat sequence.

CNTF mRNA = test: Induction of CNTF mRNA expression in rats; assay type: in vivo, Sprague Dawley rats
Protocol: Young adult male Sprague Dawley rats (250-350 g) were administered Compound (A), Compound (E), or a vehicle (80% propylene glycol (human formulation grade; Spectrum Quality Products, Inc., Gardena, Calif., catalog #PR130-55003) and 20% phosphate buffer, pH 9.2) at doses ranging from 0.1 to 5.5 μg/kg daily by oral gavage for eight days. Five hours after the last dose, the animals were sacrificed by decapitation. Each brain was quickly removed and chilled in ice-cold saline. The brain was cut into 2 mm thick coronal sections. Portions of the hippocampus, encompassing the CA1 region, and the medial septum were removed by punching 2 mm^3 sections using a calibrated tissue punch. Punched sections were immediately frozen on dry ice and then stored at -70° C. RNA was prepared from dissected tissue pieces.
Punches of tissue were homogenized in […] RNAzolB™ (Bioteex Laboratories, Houston, Tex.) using a homogenizer (Tekmar, Germany) until fully homogenized and then 250 μl RNAzilB™ was added. Typically, punches from the corresponding regions of brains of 2 to 3 animals were combined together. RNA was prepared as recommended by the manufacturer (Biotecx Laboratories). […] Concentration of RNA was measured spectrophotometrically and the quality of RNA was visualized on a nondenaturing agarose gel. […]

Kd (vitamin D receptor): 200 pM | Calcium in Serum ([1]; 10 μg/kg/day p.o., Table 2B (vehicle 2.57 ± 0.06)): 2.51 ± 0.05 mmol/L | Calcium in Serum ([1]; 50 μg/kg/day p.o., Table 2B (vehicle 2.57 ± 0.06)): 2.59 ± 0.02 mmol/L | Calcium in Serum ([1]; 100 μg/kg/day p.o., Table 2B (vehicle 2.57 ± 0.06)): 2.59 ± 0.04 mmol/L | Calcemic Activity (%) [1]: 1% | serum calcium at doses giving the ChAT results [3]: low calcemic dose levels
SMILES: C=C1/C(=C\C=C2/CCC[C@]3(C)[C@@H]([C@@H](C)CSc4cccc(C(C)(C)O)c4)CC[C@@H]23)C[C@@H](O)C[C@@H]1O [Compound (B), 1(S),3(R)-dihydroxy-20(R)-(3-((1-hydroxy-1-methyl)ethyl)phenylthiomethyl)-9,10-seco-pregna-5(Z),7(E),10(19)-triene]
calcemic classification [1]: exemplary of low calcemic vitamin D3 analogues | hippocampal ChAT activity vs lesioned controls (hippocampal ChAT): significant increase in CHAT activity | development of peripheral neuropathy ([2]; continuously pumped (mini-pump)): did not prevent the development of the acrylamide-induced peripheral neuropathy | recovery from peripheral neuropathy ([2]; mini-pump): increased the recovery from acrylamide-induced peripheral neuropathy; also recorded: an effect upon the recovery from the lesion was apparent | return of landing foot spread to sham levels ([2]; mini-pump 10 ng/day): returned to sham levels by day 36 | landing foot spread on day 40 ([2]; mini-pump 10, 100 or 1000 ng/day (FIG. 13B)): statistically significant decrease in landing foot spread | landing foot spread ([2]; mini-pump, recovery period): decreased landing foot spread during the recovery period

Calcium in Serum ([1]; 0.1 μg/kg/day p.o., Table 2C (vehicle 2.68 ± 0.03)): 2.71 ± 0.07 mmol/L | Calcium in Serum ([1]; 1.0 μg/kg/day p.o., Table 2C (vehicle 2.68 ± 0.03)): 2.66 ± 0.06 mmol/L | Calcium in Serum ([1]; 10 μg/kg/day p.o., Table 2C (vehicle 2.68 ± 0.03)): 2.82 ± 0.05 mmol/L | Calcemic Activity (%) [1]: 8% | serum calcium at doses giving the ChAT results [3]: low calcemic dose levels
SMILES: C=C1/C(=C\C=C2/CCC[C@]3(C)[C@@H]([C@@H](C)COc4cccc(C(C)(C)O)c4)CC[C@@H]23)C[C@@H](O)C[C@@H]1O [Compound (C), 1(S), 3(R)-dihydroxy-20(R)-[3-(2-hydroxy-2-propyl)-phenoxymethyl]-9,10-seco-pregna-5(Z),7(E),10(19)-triene]
calcemic classification [1]: exemplary of low calcemic vitamin D3 analogues | hippocampal ChAT activity vs lesioned controls (hippocampal ChAT): significant increase in CHAT activity

Calcium in Serum ([1]; 0.1 μg/kg/day p.o., Table 2D (vehicle 2.51 ± 0.09)): 2.59 ± 0.08 mmol/L | Calcium in Serum ([1]; 5.0 μg/kg/day p.o., Table 2D (vehicle 2.51 ± 0.09)): 2.90 ± 0.06 mmol/L | Calcium in Serum ([1]; 10 μg/kg/day p.o., Table 2D (vehicle 2.51 ± 0.09)): 3.19 ± 0.16 mmol/L | Calcemic Activity (%) [1]: 20% | serum calcium at doses giving the ChAT results [3]: low calcemic dose levels
SMILES: C=C1/C(=C\C=C2/CCC[C@]3(C)[C@@H]([C@H](C)CCCCC(O)(CC)CC)CC[C@@H]23)C[C@@H](O)C[C@@H]1O [Compound (D)]
calcemic classification [1]: exemplary of low calcemic vitamin D3 analogues | hippocampal ChAT activity vs lesioned controls (hippocampal ChAT): significant increase in CHAT activity

Kd (vitamin D receptor): 300 pM | Calcium in Serum ([1]; 0.1 μg/kg/day p.o., Table 2E (vehicle 2.51 ± 0.09)): 2.41 ± 0.01 mmol/L | Calcium in Serum ([1]; 1.0 μg/kg/day p.o., Table 2E (vehicle 2.51 ± 0.09)): 2.42 ± 0.04 mmol/L | Calcium in Serum ([1]; 10 μg/kg/day p.o., Table 2E (vehicle 2.51 ± 0.09)): 2.38 ± 0.03 mmol/L | Calcemic Activity (%) [1]: 20% | serum calcium at doses giving the ChAT results [3]: low calcemic dose levels
SMILES: C=C1/C(=C\C=C2/CCC[C@]3(C)[C@@H]([C@H](C)/C=C/C#CC(O)(CC)CC)CC[C@@H]23)C[C@@H](O)C[C@@H]1O [Compound (E)]
production of NGF mRNA (NGF mRNA; 0.3, 1.0, 3.0, and 5.5 μg/kg oral, 8 days, rat septum (FIG. 2A)): facilitated the production of NGF mRNA | dose dependence of NGF mRNA production (NGF mRNA; 0.3-5.5 μg/kg, rat septum): generally increased with increasing dosage | calcemic classification [1]: exemplary of low calcemic vitamin D3 analogues | hippocampal ChAT activity vs lesioned controls (hippocampal ChAT): significant increase in CHAT activity | production of CTNF mRNA (CNTF mRNA; 0.3, 1.0, 3.0, and 5.5 μg/kg oral, 8 days, rat septum (FIG. 2B)): facilitated the production of NGF mRNA and CTNF mRNA | dose dependence of CTNF mRNA production (CNTF mRNA; 0.3-5.5 μg/kg, rat septum): generally increased with increasing dosage
